Data on 13 compounds can be found in patent publication US20260225970A1, “SOIL C[…] USE THEREOF” (priority 2020, published 2026).

Each structure is given as a SMILES string. Where two headings read alike, the source gives them in different places.

The test concerns Nitrosomonas europaea IF014298. The experiment in a line: Bioluminescence nitrification inhibition assay using a nitrifying bacterium in vitro (luxAB-introduced Nitrosomonas europaea). Format: cell-based. The conditions noted are these: for IC80: IF014298, 0.5 h, read-out: Nitrification inhibitory activity ED80; for nitrification inhibitory activity: result in words, conclusion from the bioluminescence assay (Table 2). The protocol: The nitrification inhibitory action of 2,7-dimethoxy-1,4-naphthoquinone was analyzed using a nitrifying bacterium in vitro (T. Iizumi, M. Mizumoto, K. Nakamura, A Bioluminescence assay using Nitrosomonas europaea for rapid and sensitive detection of nitrification inhibitors (1998) Appl. Environment. Microbiol., 64, 3656-3662).
A nitrifying bacterium (Nitrosomonas europaea IF014298) into which a luciferase gene derived from a bacterium (luxAB) had been introduced was aerobically cultured at 30° C. for 7 to 9 days in a P culture medium containing kanamycin (25 mg/l L). The obtained nitrifying bacterium was washed and then suspended in a fresh P culture medium to prepare a nitrifying bacterial suspension. This nitrifying bacterial suspension was allowed to stand in a dark place for 30 minutes or more before the experiment.
Here, the composition of the P culture medium consisted of 2.5 g of (NH4)2SO4, 0.7 g of KH2PO4, 13.5 g of Na2HPO4, 0.5 g of NaHCO3, 100 mg of MgSO4/7H2O, 5 mg of CaCl2/2H2O, 1 mg of Fe-EDTA, and 1 L of water, and the pH thereof was 8.0.
After mixing in vitro an aqueous solution of the above-described nitrifying bacterial suspension, consisting of 0.25 mL of the above-described nitrifying bacterial suspension and 0.2 mL of water, with 0.01 mL of a sample solution of 2,7-dimethoxy-1,4-naphthoquinone at various concentrations, the amount of bioluminescence associated with the nitrification reaction during culturing at 15° C. for 30 minutes was measured using a luminometer (manufactured by Turner Designs, Inc., model name: TD20/20), whereby the nitrification action was evaluated.
The amount of bioluminescence associated with the nitrification reaction decreases in a case where a substance having a nitrification inhibitory action is present in the sample solution. Therefore, the amount of luminescence in a case where each of the sample solutions of 2,7-dimethoxy-1,4-naphthoquinone at various concentrations was added to the aqueous solution of the nitrifying bacterial suspension was divided by the amount of luminescence in the case of only using the aqueous solution of the bacterial cell suspension without the sample solution being added, thereby obtaining a value as the nitrification inhibition rate. The results of measuring the nitrification inhibitory activity of the present compound at various concentrations are shown in FIG. 5.
In addition, the nitrification inhibitory activity of the 1,4-naphthoquinone derivative was measured in the same manner. In Table 2, R^1 to R^6 are each R^1 to R^6 in Formula (1), respectively.

Where [1] appears, read: bioluminescence during culturing at 15° C. for 30 minutes, luxAB Nitrosomonas europaea suspension in P culture medium.

Regarding `O=C1C(Cl)=C(Cl)C(=O)c2c(O)ccc(O)c21` [2,3-Dichloro-5,8-dihydroxy-1,4-naphthoquinone], the nitrification inhibitory activity result is “have a nitrification inhibitory activity”. Besides, the IC80 under setting [1] turned out to be 0.9 µM.
On the same counts, the results for `O=C1C=C(Cl)C(=O)c2ccccc21` [2-Chloro-1,4-naphthoquinone] are “have a nitrification inhibitory activity” and 4 µM.
As for `CC1=CC(=O)c2ccccc2C1=O` [2-Methyl-1,4-naphthoquinone], the nitrification inhibitory activity result is “have a nitrification inhibitory activity”. The IC80 under setting [1] worked out at 4.4 µM.
On the same counts, the results for `NC1=C(Cl)C(=O)c2ccccc2C1=O` [2-Amino-3-chloro-1,4-naphthoquinone] are “have a nitrification inhibitory activity” and 13.3 µM.
`COC1=CC(=O)c2ccc(OC)cc2C1=O` [Zeanone, 2,7-dimethoxy-1,4-naphthoquinone]: the IC80 under setting [1] is 16.1 µM. Further, under “nitrification inhibition, dose response curve of FIG. 5, second value printed as ED50 in the same sentence, 15° C., 30 minutes”, the ED50 was 16.1 µM. Moreover, the nitrification inhibitory activity result is reported as “have a nitrification inhibitory activity” (listed as 2,7-dimethoxy-1,4-naphthoquinone) and “excellent nitrification inhibitory action” (listed as zeanone).
For the compound `Cc1ccc2c(c1)C(=O)C=CC2=O` [6-Methyl-1,4-naphthoquinone], the nitrification inhibitory activity result is on record as “have a nitrification inhibitory activity”. Moreover, the IC80 under setting [1] was determined as 2.2 µM.
On the same counts, the results for `COC1=CC(=O)c2ccccc2C1=O` [2-Methoxy-1,4-naphthoquinone] are “have a nitrification inhibitory activity” and 8.9 µM.
On to `O=C1C(Cl)=C(Cl)C(=O)c2ccccc21` [2,3-Dichloro-1,4-naphthoquinone], for which the nitrification inhibitory activity entry is given as “have a nitrification inhibitory activity”. The IC80 under setting [1] was 2.2 µM.
For `CC1=CC(=O)c2c(O)cccc2C1=O` [5-Hydroxy-2-methyl-1,4-naphthoquinone], the nitrification inhibitory activity entry was “have a nitrification inhibitory activity”. Moreover, the IC80 under setting [1] worked out at 0.5 µM.
On the same counts, the results for `O=C1C=CC(=O)c2c(O)cccc21` [5-Hydroxy-1,4-naphthoquinone] are “have a nitrification inhibitory activity” and 1.1 µM.
For `O=C1C=C(O)C(=O)c2ccccc21` [2-Hydroxy-1,4-naphthoquinone], in that order: “does not have a nitrification inhibitory activity” and > 100 µM.
For the compound `O=C1C=CC(=O)c2c(O)ccc(O)c21` [5,8-Dihydroxy-1,4-naphthoquinone], the nitrification inhibitory activity result is “have a nitrification inhibitory activity”. Also, the IC80 (Nitrosomonas europaea) was 2.2 µM.
In the case of `O=C1C=CC(=O)c2ccccc21` [1,4-Naphthoquinone], the nitrification inhibitory activity result was “have a nitrification inhibitory activity”. For the same compound, under setting [1], the IC80 was 4.4 µM.
